Results published in US8952024B2, “Herbicidal pyrimidone derivatives” (E I du Pont de Nemours and Company, priority 2009, dated 2015).

Legend:
Test in all cases: Test B pre-/postemergence plant response
Assay type in all cases: in vivo
[1] = system: lambsquarters (Chenopodium album)
Summary of the method: (§1)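 Visual injury, 0–100 scale (100 = complete control), rated against controls after 13 to 15 days in greenhouse. Pre-emergence: seeds in loam/sand soil, treated at planting. Post-emergence: 1- to 4-leaf plants (2 to 18 cm) in peat/vermiculite medium. Compounds formulated in non-phytotoxic solvent with surfactant.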

[2] = system: green foxtail (Setaria viridis)
Summary of the method: as §1

[3] = system: Italian ryegrass (Lolium multiflorum)
Summary of the method: as §1

[4] = system: downy bromegrass (Bromus tectorum)
Summary of the method: as §1

corn (Zea mays) = system: corn (Zea mays)
Summary of the method: as §1

[5] = system: goosegrass (Eleusine indica)
Summary of the method: as §1

[6] = system: woolly cupgrass (Eriochloa villosa)
Summary of the method: as §1

[7] = system: yellow nutsedge (Cyperus esculentus)
Summary of the method: as §1

[8] = system: Surinam grass (Brachiaria decumbens)
Summary of the method: as §1

[9] = system: ragweed (common ragweed, Ambrosia elatior)
Summary of the method: as §1

[10] = system: giant foxtail (Setaria faberii)
Summary of the method: as §1

[11] = system: blackgrass (Alopecurus myosuroides)
Summary of the method: as §1

[12] = system: large crabgrass (Digitaria sanguinalis)
Summary of the method: as §1

[13] = system: bermudagrass (Cynodon dactylon)
Summary of the method: as §1

kochia (Kochia scoparia) = system: kochia (Kochia scoparia)
Summary of the method: as §1

[14] = system: johnsongrass (Sorghum halepense)
Summary of the method: as §1

[15] = system: velvetleaf (Abutilon theophrasti)
Summary of the method: as §1

[16] = 250 g ai/ha, Preemergence, 0 to 100 scale
[17] = Postemergence, 31 g ai/ha, scale 0 to 100 (0 no effect, 100 complete control)
[18] = Postemergence, 62 g ai/ha, scale 0 (no effect) to 100 (complete control), 13 to 15 days
[19] = Postemergence, 125 g ai/ha, visual rating after 13 to 15 days, scale 0 (no effect) to 100 (complete control)
[20] = Postemergence, 250 g ai/ha, scale 0 to 100
[21] = Preemergence, 31 g ai/ha, scale 0 to 100 (0 no effect, 100 complete control)
[22] = Preemergence, 125 g ai/ha, 0 to 100 scale
[23] = Preemergence, 62 g ai/ha, scale 0 to 100, 0 no effect, 100 complete control

Substance: 5-[(1-ethyl-5-hydroxy-1H-pyrazol-4-yl)carbonyl]-2-phenyl-3-(phenylmethyl)-4(3H)-pyrimidinone [Compound 20]
- Plant response rating, Lambsquarters [1, 16]: 100
- Plant response rating, Lambsquarters [1, 17]: 85
- Plant response rating, Lambsquarters [1, 18]: 95
- Plant response rating, Lambsquarters [1, 19]: 98
- Lambsquarters plant response rating [1, 20]: 100
- Plant response rating, Lambsquarters [1, 21]: 100
- Lambsquarters plant response rating [1, 22]: 100
- Plant response rating, Foxtail, Green [2, 16]: 0
- Plant response rating, Foxtail, Green [2, 17]: 5
- Plant response rating, Foxtail, Green [2, 18]: 10
- Plant response rating, Foxtail, Green [2, 19]: 35
- Foxtail, Green plant response rating [2, 20]: 50
- Plant response rating, Foxtail, Green [2, 21]: 0
- Plant response rating, Foxtail, Green [2, 23]: 0
- Foxtail, Green plant response rating [2, 22]: 0
- Plant response rating, Ryegrass, Italian [3, 16]: 0
- Plant response rating, Ryegrass, Italian [3, 17]: 0
- Plant response rating, Ryegrass, Italian [3, 18]: 0
- Plant response rating, Ryegrass, Italian [3, 19]: 5
- Ryegrass, Italian plant response rating [3, 20]: 5
- Plant response rating, Ryegrass, Italian [3, 21]: 0
- Plant response rating, Ryegrass, Italian [3, 23]: 0
- Ryegrass, Italian plant response rating [3, 22]: 0
- Plant response rating, Bromegrass, Downy [4, 16]: 0
- Plant response rating, Bromegrass, Downy [4, 17]: 0
- Plant response rating, Bromegrass, Downy [4, 18]: 0
- Plant response rating, Bromegrass, Downy [4, 19]: 0
- Bromegrass, Downy plant response rating [4, 20]: 45
- Plant response rating, Bromegrass, Downy [4, 21]: 0
- Plant response rating, Bromegrass, Downy [4, 23]: 0
- Bromegrass, Downy plant response rating [4, 22]: 0
- Plant response rating, Corn (corn (Zea mays); [16]): 5
- Plant response rating, Corn (corn (Zea mays); [17]): 0
- Plant response rating, Corn (corn (Zea mays); [18]): 0
- Plant response rating, Corn (corn (Zea mays); [19]): 10
- Corn plant response rating (corn (Zea mays); [20]): 15
- Plant response rating, Corn (corn (Zea mays); [21]): 0
- Plant response rating, Corn (corn (Zea mays); [23]): 0
- Corn plant response rating (corn (Zea mays); [22]): 0
- Plant response rating, Goosegrass [5, 16]: 98
- Plant response rating, Goosegrass [5, 17]: 15
- Plant response rating, Goosegrass [5, 18]: 50
- Plant response rating, Goosegrass [5, 19]: 70
- Goosegrass plant response rating [5, 20]: 95
- Plant response rating, Goosegrass [5, 21]: 30
- Goosegrass plant response rating [5, 22]: 85
- Plant response rating, Cupgrass, Woolly [6, 16]: 10
- Plant response rating, Cupgrass, Woolly [6, 17]: 0
- Plant response rating, Cupgrass, Woolly [6, 18]: 15
- Plant response rating, Cupgrass, Woolly [6, 19]: 20
- Cupgrass, Woolly plant response rating [6, 20]: 55
- Plant response rating, Cupgrass, Woolly [6, 21]: 0
- Plant response rating, Cupgrass, Woolly [6, 23]: 0
- Cupgrass, Woolly plant response rating [6, 22]: 0
- Plant response rating, Nutsedge, Yellow [7, 16]: 50
- Plant response rating, Nutsedge, Yellow [7, 17]: 15
- Plant response rating, Nutsedge, Yellow [7, 18]: 45
- Plant response rating, Nutsedge, Yellow [7, 19]: 65
- Nutsedge, Yellow plant response rating [7, 20]: 80
- Plant response rating, Nutsedge, Yellow [7, 21]: 5
- Plant response rating, Nutsedge, Yellow [7, 23]: 10
- Nutsedge, Yellow plant response rating [7, 22]: 40
- Plant response rating, Surinam Grass [8, 16]: 5
- Plant response rating, Surinam Grass [8, 17]: 15
- Plant response rating, Surinam Grass [8, 18]: 25
- Plant response rating, Surinam Grass [8, 19]: 40
- Surinam Grass plant response rating [8, 20]: 65
- Plant response rating, Surinam Grass [8, 21]: 0
- Plant response rating, Surinam Grass [8, 23]: 0
- Surinam Grass plant response rating [8, 22]: 0
- Plant response rating, Ragweed [9, 16]: 90
- Plant response rating, Ragweed [9, 17]: 80
- Plant response rating, Ragweed [9, 18]: 85
- Plant response rating, Ragweed [9, 19]: 98
- Ragweed plant response rating [9, 20]: 100
- Plant response rating, Ragweed [9, 21]: 65
- Plant response rating, Ragweed [9, 23]: 65
- Ragweed plant response rating [9, 22]: 90
- Plant response rating, Foxtail, Giant [10, 16]: 0
- Plant response rating, Foxtail, Giant [10, 17]: 15
- Plant response rating, Foxtail, Giant [10, 18]: 45
- Plant response rating, Foxtail, Giant [10, 19]: 60
- Foxtail, Giant plant response rating [10, 20]: 65
- Plant response rating, Foxtail, Giant [10, 21]: 0
- Plant response rating, Foxtail, Giant [10, 23]: 0
- Foxtail, Giant plant response rating [10, 22]: 0
- Plant response rating, Blackgrass [11, 16]: 0
- Plant response rating, Blackgrass [11, 17]: 0
- Plant response rating, Blackgrass [11, 18]: 0
- Plant response rating, Blackgrass [11, 19]: 0
- Blackgrass plant response rating [11, 20]: 5
- Plant response rating, Blackgrass [11, 21]: 0
- Plant response rating, Blackgrass [11, 23]: 0
- Blackgrass plant response rating [11, 22]: 0
- Plant response rating, Crabgrass, Large [12, 16]: 100
- Plant response rating, Crabgrass, Large [12, 17]: 60
- Plant response rating, Crabgrass, Large [12, 18]: 70
- Plant response rating, Crabgrass, Large [12, 19]: 80
- Crabgrass, Large plant response rating [12, 20]: 90
- Plant response rating, Crabgrass, Large [12, 21]: 0
- Plant response rating, Crabgrass, Large [12, 23]: 70
- Crabgrass, Large plant response rating [12, 22]: 85
- Plant response rating, Bermudagrass [13, 16]: 90
- Plant response rating, Bermudagrass [13, 17]: 15
- Plant response rating, Bermudagrass [13, 18]: 25
- Plant response rating, Bermudagrass ([13]; Postemergence, 125 g ai/ha, scale 0 to 100 (0 no effect, 100 complete control), 13 to 15 days): 70
- Bermudagrass plant response rating [13, 20]: 80
- Plant response rating, Bermudagrass [13, 21]: 10
- Plant response rating, Bermudagrass [13, 23]: 70
- Bermudagrass plant response rating [13, 22]: 80
- Plant response rating, Kochia (kochia (Kochia scoparia); [16]): 100
- Plant response rating, Kochia (kochia (Kochia scoparia); [17]): 65
- Plant response rating, Kochia (kochia (Kochia scoparia); [18]): 80
- Plant response rating, Kochia (kochia (Kochia scoparia); [19]): 85
- Kochia plant response rating (kochia (Kochia scoparia); [20]): 95
- Plant response rating, Kochia (kochia (Kochia scoparia); [21]): 98
- Kochia plant response rating (kochia (Kochia scoparia); [22]): 100
- Plant response rating, Johnsongrass [14, 16]: 10
- Plant response rating, Johnsongrass [14, 17]: 0
- Plant response rating, Johnsongrass [14, 18]: 0
- Johnsongrass plant response rating [14, 20]: 15
- Plant response rating, Johnsongrass [14, 21]: 0
- Plant response rating, Johnsongrass [14, 23]: 0
- Johnsongrass plant response rating [14, 22]: 0
- Plant response rating, Velvetleaf [15, 16]: 100
- Plant response rating, Velvetleaf [15, 17]: 95
- Plant response rating, Velvetleaf [15, 18]: 100
- Plant response rating, Velvetleaf [15, 19]: 100
- Velvetleaf plant response rating [15, 20]: 100
- Plant response rating, Velvetleaf [15, 21]: 50
- Plant response rating, Velvetleaf [15, 23]: 90
- Velvetleaf plant response rating [15, 22]: 90
